Measurements from the supplement of paper PMC10307832.

What was measured:
Assay in all cases: relative viability (nuclei count vs DMSO), 5 days (fraction); higher = more cells survive
[1] = compound: COC1=CC(c2cc3ccccc3[nH]2)=N/C1=C\c1[nH]c(C)cc1C [Obatoclax] + Nc1nc2[nH]cc(CCc3ccc(C(=O)N[C@@H](CCC(=O)O)C(=O)O)cc3)c2c(=O)[nH]1 [Pemetrexed] (partner 0.2 µM)
How it was run: (§1)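 Medians of duplicate plates are given as relative viability. That measure is the nuclei count in treated wells divided by the count in vehicle wells. Counts were taken on 4× images of lung cancer cell lines in 1536-well plates, 5 days after pin-tool dosing the day after seeding with one drug alone or a fixed anchor-drug dose plus five library-drug doses (not always all listed) in √10 steps.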

[2] = compound: CC1=CC(=NN1)NC2=CC(=NC(=N2)/C=C/C3=CC=CC=C3)N4CCN(CC4)C + C[C@@H](Oc1cc(-c2cnn(C3CCNCC3)c2)cnc1N)c1c(Cl)ccc(F)c1Cl [Crizotinib] (partner 1 µM)
How it was run: as §1

[3] = compound: CC1=CC(=NN1)NC2=CC(=NC(=N2)/C=C/C3=CC=CC=C3)N4CCN(CC4)C + Cc1cc(Nc2cc(N3CCN(C)CC3)nc(Sc3ccc(NC(=O)C4CC4)cc3)n2)n[nH]1 [Tozasertib] (partner 0.1 µM)
How it was run: as §1

[4] = compound: CC(C)C[C@H](NC(=O)[C@H](Cc1ccccc1)NC(=O)c1cnccn1)B(O)O [Bortezomib] + Nc1nc2[nH]cc(CCc3ccc(C(=O)N[C@@H](CCC(=O)O)C(=O)O)cc3)c2c(=O)[nH]1 [Pemetrexed] (partner 0.2 µM)
How it was run: as §1

Row | Cell Line | relative viability ([1]; first compound 0.01 µM) | relative viability ([1]; first compound 0.03162 µM) | relative viability ([1]; first compound 0.1 µM) | relative viability ([1]; first compound 0.3162 µM) | relative viability ([1]; first compound 1 µM) | relative viability ([2]; first compound 0.08 µM) | relative viability ([2]; first compound 0.253 µM) | relative viability ([2]; first compound 0.8 µM) | relative viability ([2]; first compound 2.53 µM) | relative viability ([2]; first compound 8 µM) | relative viability ([3]; first compound 0.08 µM) | relative viability ([3]; first compound 0.253 µM) | relative viability ([3]; first compound 0.8 µM) | relative viability ([3]; first compound 2.53 µM) | relative viability ([3]; first compound 8 µM) | relative viability ([4]; first compound 0.0002 µM) | relative viability ([4]; first compound 0.000632 µM) | relative viability ([4]; first compound 0.002 µM) | relative viability ([4]; first compound 0.006325 µM) | relative viability ([4]; first compound 0.02 µM)
1 | HCC-78 | 0.858 | 0.898 | 0.777 | 0.887 | 0.897 | 0.365 | 0.372 | 0.352 | 0.32 | 0.146 | 0.365 | 0.427 | 0.352 | 0.304 | 0.253 | 0.786 | 0.89 | 0.932 | 0.887 | 0.902
2 | LCLC-97TM1 | 0.171 | 0.188 | 0.18 | 0.178 | 0.161 | 0.381 | 0.352 | 0.292 | 0.152 | 0.078 | 0.235 | 0.132 | 0.23 | 0.145 | 0.126 | 0.189 | 0.17 | 0.16 | 0.166 | 0.0769
3 | NCI-H838 | 0.237 | 0.247 | 0.233 | 0.223 | 0.198 | 0.89 | 0.936 | 0.742 | 0.434 | 0.0999 | 0.296 | 0.287 | 0.271 | 0.211 | 0.119 | 0.252 | 0.231 | 0.264 | 0.161 | 0.161
4 | NCI-H520 | 0.657 | 0.714 | 0.656 | 0.643 | 0.249 | 0.798 | 0.778 | 0.473 | 0.251 | 0.0942 | 0.432 | 0.464 | 0.381 | 0.307 | 0.176 | 0.511 | 0.785 | 0.3 | 0.17 | 0.139
5 | NCI-H2347 | 0.399 | 0.419 | 0.37 | 0.392 | 0.38 | 0.855 | 0.784 | 0.545 | 0.573 | 0.262 | 0.501 | 0.565 | 0.518 | 0.461 | 0.257 | 0.418 | 0.43 | 0.413 | 0.417 | 0.357
6 | NCI-H441 | 0.231 | 0.217 | 0.27 | 0.244 | 0.269 | 0.689 | 0.794 | 0.457 | 0.254 | 0.15 | 0.642 | 0.592 | 0.599 | 0.287 | 0.189 | 0.248 | 0.244 | 0.253 | 0.104 | 0.118
7 | NCI-H358 | 0.159 | 0.185 | 0.166 | 0.192 | 0.14 | 0.607 | 0.478 | 0.264 | 0.14 | 0.11 | 0.103 | 0.103 | 0.0892 | 0.089 | 0.0711 | 0.163 | 0.182 | 0.171 | 0.104 | 0.0993
8 | NCI-H2405 | 1.11 | 1.01 | – | 1.07 | 0.927 | 0.868 | 0.818 | 0.803 | 0.694 | 0.202 | 0.751 | 0.72 | 0.674 | 0.421 | 0.185 | 1.02 | 0.792 | 1.11 | 0.121 | 0.14
9 | HCC-15 | 0.215 | 0.234 | 0.215 | 0.225 | 0.228 | 0.864 | 0.823 | 0.783 | 0.298 | 0.0811 | 0.291 | 0.355 | 0.18 | 0.0787 | 0.0703 | 0.213 | 0.199 | 0.215 | 0.13 | 0.1
